Source: patent US20250019700A1, “TREATING CHEMORESISTANT FORMS OF LEUKEMIA AND OTHER CANCERS THAT OVEREXPRESS RNA BINDING PROTEIN FXR1” (The General Hospital Corporation, priority 2021, published 2025)

How the values were obtained:
Assay type in all cases: cell-based
G0 cells (THP1) = test: Chemosurvival of G0 cells treated with ISRIB and AraC; conditions: ISRIB and AraC (FIG. 4H)
Procedure: (§1) THP1 cells were cultured in […] media supplemented with 10% fetal bovine serum (FBS), 2 mM L-Glutamine, 100 μg/mL streptomycin and 100 U/ml penicillin at 37° C. in 5% CO2. SS THP1 cells were prepared by washing with PBS followed by serum-starvation at a density of 2×10^5 cells/mL and AraCS cells, by treatment with indicated concentrations of AraC for indicated periods of time. THP1 (TIB-202) and MV4:11 (CRL-9591) were obtained from ATCC. MOLM13 (ACC554) were obtained from DSMZ. Cell lines kindly provided by David Scadden.
(§2) Cytarabine (AraC), Trans-ISRIB, FX-1, and Toyocamycin were obtained from Cayman Chemicals. For polysome analysis, FXR1 OE and control cells were treated with 1 μM trans-ISRIB for 24 h. For cell viability FXR1 OE and control cells were treated individually or with a combination of 5 μM AraC and 1 μM trans-ISRIB for 24 h; 100 nM Toyocamycin and 1 μM AraC; 10 μM FX-1 and 5 μM AraC.

ATF4 = test: Western blot of non-canonical translation target ATF4 with ISRIB; conditions: in the presence of ISRIB
Procedure: (§3) Cells were collected and resuspended in lysis buffer containing 40 mM Tris-HCl (pH 7.4), 6 mM MgCl2, 150 mM NaCl, 0.1% NP-40, 1 mM DTT, […], 17.5 mM β-glycerophosphate, 5 mM NaF and protease inhibitors. Samples containing 80 μg of protein were loaded onto 4%-20% gradient SDS-PAGE (Bio-Rad) or 16% SDS-PAGE (Invitrogen), transferred to PVDF membranes and processed for immunoblotting.

FXR1 OE cells (THP1) = test: Chemosurvival (fraction of cell viability) of FXR1 OE cells treated with AraC plus inhibitor
Procedure: as §1
THP1 FXR1 OE cell lines were created by infecting cells with an FXR1 containing retroviral vector for constitutive over expression of FXR1. Corresponding control cell lines were made by infection with empty vector.
as §2

[1] = system: FXR1-overexpression cells; test: Polysome analysis followed by qPCR of mRNAs, with or without ISRIB; conditions: FXR1 OE cells, 1 μM trans-ISRIB for 24 h
Procedure: Sucrose was dissolved in lysis buffer containing 100 mM KCl, 5 mM MgCl2, 2 mM DTT and 10 mM Tris-HCl (pH 7.4). Sucrose gradients from 10% to 55% were prepared in ultracentrifuge tubes (Beckman). Harvested cells were rinsed with ice-cold PBS and resuspended in lysis buffer with 1% Triton X-100 and 40 U/mL […] (New England Biolabs) for 20 minutes with intermittent tapping on ice. After centrifugation of cell lysates at 12,000×g for 20 minutes, supernatants were loaded onto sucrose gradients followed by ultracentrifugation (Beckman Coulter Optima L90) at 32,500×rpm at 4° C. for 80 min in the SW40 rotor. Samples were separated by density gradient fractionation system (Biocomp Piston Gradient Fractionation). RNAs were purified by using TRIzol (Invitrogen) from heavy polysome fractions and whole cell lysates. The synthesized cDNA probes from WT Expression Kit (Ambion) were hybridized to Gene Chip Human Transcriptome Array 2.0 (Affymetrix) and analyzed by the Partners Healthcare Center for Personalized Genetic Medicine Microarray and BUMC facilities. Gene ontology analysis for differentially expressed translatome or proteome was conducted by DAVID 6.7 tools. Molecular signatures enriched in FXR1 OE and Control cells were identified by Gene Set Enrichment Analysis (GSEA).
Total RNA was isolated using TRIzol (Invitrogen) according to the manufacturer's instructions. […]

PKR = test: Western blot of phosphorylated PKR in AraC treated cells; conditions: AraC treated cells (0, 1, 5 μM AraC), normalized to total PKR
Procedure: Cells were collected and resuspended in lysis buffer containing 40 mM Tris-HCl (pH 7.4), 6 mM MgCl2, 150 mM NaCl, 0.1% NP-40, 1 mM DTT, 20 mM, 17.5 mM β-glycerophosphate, 5 mM NaF and protease inhibitors. Samples containing 80 μg of protein were loaded onto 4%-20% gradient SDS-PAGE (Bio-Rad) or 16% SDS-PAGE (Invitrogen), transferred to PVDF membranes and processed for immunoblotting. Antibodies against FXR1 (used for Western), Actin, Tubulin were from Millipore; NOLC1, DDX21, PolR1D, RPLP0, RPLP2, RPL29, RPL11, FXR1 (used for Immunoprecipitation) were from Protein Tech; PKR, P—PKR, EIF2α, P-EIF2α, GCN2 (used for immunoprecipitation) were from Cell Signaling; P-GCN2, GCN2 (used for Western) were from abcam.

FXR1 = test: Western blot of FXR1 levels in AraC treated THP1 cells; conditions: AraC treated surviving THP1 cells compared to untreated (1 μM AraC, FIG. 1A)
Procedure: as §1, §3
Antibodies against FXR1 (used for Western), Actin, Tubulin were from Millipore; NOLC1, DDX21, PolR1D, RPLP0, RPLP2, RPL29, RPL11, FXR1 (used for Immunoprecipitation) were from Protein Tech; PKR, P—PKR, EIF2α, P-EIF2α, GCN2 (used for immunoprecipitation) were from Cell Signaling; P-GCN2, GCN2 (used for Western) were from abcam.

[2] = system: 28S rRNA snoRA22 sites U4966 and U4975; test: Low dNTP CMCT qPCR assay of rRNA pseudouridylation; conditions: AraC cells (THP1)
Procedure: For analysis of 2′O-methylation, RNA was prepared from indicated cells. Reverse transcription (as described above in qPCR) was performed with primers in the reverse orientation from the modification site on ribosomal RNA. Two different dNTP concentrations were used for each primer, low (0.025 mM) and high (2.5 mM). qPCR was done with the resulting cDNA using primers at forward and reverse orientation to the modified sites. Fold change in modification was calculated based on difference of Ct values in the low and high dNTP conditions. For analyzing pseudouridylation, first the RNA was treated with CMCT (1-cyclohexyl-(2-morpholinoethyl) carbodiimide metho-p-toluene sulfonate) under alkaline conditions. Rest of the experiment was done as described above for 2′O-methylation.

## O=C(COc1ccc(Cl)cc1)NC1CCC(NC(=O)COc2ccc(Cl)cc2)CC1 (stereo not drawn) [ISRIB]
G0 cells (THP1)
  chemosurvival: reduced chemosurvival
ATF4
  level of known non-canonical targets such as ATF4: decrease
FXR1 OE cells (THP1); FXR1 OE cells, 1 μM trans-ISRIB combined with 5 μM AraC, 24 h, compared to buffer and AraC
  chemosurvival: reduced chemosurvival
[1]
  polysome association of mRNAs that are upregulated in FXR1-overexpressing cells: reduced polysome association
  polysome association of other genes like vinculin: without affecting

## N#Cc1cn([C@@H]2O[C@H](CO)[C@@H](O)[C@H]2O)c2ncnc(N)c12 [Toyocamycin]
FXR1 OE cells (THP1); 100 nM Toyocamycin and 1 μM AraC, FXR1 OE and control cells (FIG. 4I)
  chemosurvival: decreased

## Nc1ccn([C@@H]2O[C@H](CO)[C@@H](O)[C@@H]2O)c(=O)n1 [AraC, Cytarabine]
PKR
  phosphorylation and activation of PKR: increased phosphorylation and activation
FXR1
  FXR1 protein level: increases
[2]
  rRNA pseudouridylation at snoRA22 sites on 28S at U4966 and U4975: increases
